# Bridge positions count the residues as written; N and C are the ends. Square brackets hold non-standard residues; d marks the D form. Peptide text beside a SMILES is read from it. * marks the point of attachment. DO3A(CH2CH2SO2CH2CH2) = O=C(O)CN1CCN(CCS(=O)(=O)CC*)CCN(CC(=O)O)CCN(CC(=O)O)CC1; Ala(4-thiazolyl) = N[C@@H](Cc1cscn1)C(=O)O
# Columns and labels:
# [1] = target: T1, HEK293 cells transfected with human GCGR (Homo sapiens, UniProt P47871); experiment: cellular internalization assay; assay type: cell-based
# T1 construct: expressed in transfected cells; host or cells: HEK293
# Protocol: The assay was also performed at 4 °C (5% CO2) for 60 and 120 min to suppress internalization. The exact number of cells in each well was assessed by cell counter. After incubation, the hot media containing the radioligand was removed and the cells washed with serum-free media two to three times while cells were put on ice.
# To measure membrane bound and internalized radioligand, cells were treated first with 0.2 M glycine buffer containing 4 M urea (pH 2.5) (acid wash buffer) and secondly 1 M NaOH (basic wash buffer).
# Briefly, first 0.5 mL of acid wash buffer was added to the cells and allowed to incubate for 5 min on ice. The supernatant was then removed and measured in a well counter (membrane bound fraction) (Uppsala Imanet AB, Uppsala, Sweden). The cells were washed one time, before 0.5 mL of basic wash buffer was added and allowed to incubate for 30 min at 37 °C. Then, the detached cells were collected and measured by well counter (internalized fraction). All samples were repeated in triplicates.
# The well counter data for each dish and condition was decay corrected to the time at the start of each experiment and expressed as Bq. The internalized and the total cell-associated (internalized + cell membrane bound) fractions were expressed as percentage of the total added radioligand per million of cells (%ID/M cells). […]
# [2] = target: T2, GCGR in human liver sections (Homo sapiens, UniProt P47871); experiment: in vitro autoradiography, liver sections; assay type: binding
# T2 construct: tissue Uppsala Biobank (sample collection 827); host or cells: frozen human liver sections
# Protocol: Biopsies from donor human liver and pancreas were obtained from Uppsala Biobank (sample collection 827), and their use was approved by local ethical review board (EPN 2015/401).
# (§1) Sections were added in duplicates in each individual assay, and each experiment was repeated at least three times with different batches of radioligand, except for rat sections that were only performed in one assay.
# (§2) After incubation, the sections were washed three times in 150 mL PBS. Sections were carefully dried at 37 °C and then exposed against a digital phosphorimager plate overnight together with a 10-μl droplet of radioactive reference (cross-calibrated against a gamma counter) on an absorbent paper attached to an object glass. The phosphor imager plates were scanned using a Cyclone Plus Phosphor imager (Perkin Elmer) at 600 dpi, and the resulting autoradiograms analyzed by ImageJ software (NIH, Bethesda). Pixel values in counts/mm^2 were converted to Bq/mm^2 by the included reference. Bq/mm^2 was further converted to fmol/mm^2 by the known specific radioactivity (fmol/Bq) of each batch of radiopharmaceutical.
# [3] = target: T3, GCGR in rat liver sections (Rattus norvegicus, UniProt P30082); experiment: in vitro autoradiography, liver sections; assay type: binding, Sprague Dawley rat
# T3 construct: from tissue; host or cells: frozen Sprague Dawley rat liver sections
# Protocol: Liver and pancreas tissues were collected post-mortem from cynomolgus monkeys (NHP) and Sprague Dawley rats. The use of animal tissues collected post-mortem was approved by the Animal Research Ethical Committee of the Uppsala Region and was performed according to the Uppsala university guidelines on animal experimentation (UFV 2007/724).
# as §1, §2
# T2 sequence (P47871 26-477): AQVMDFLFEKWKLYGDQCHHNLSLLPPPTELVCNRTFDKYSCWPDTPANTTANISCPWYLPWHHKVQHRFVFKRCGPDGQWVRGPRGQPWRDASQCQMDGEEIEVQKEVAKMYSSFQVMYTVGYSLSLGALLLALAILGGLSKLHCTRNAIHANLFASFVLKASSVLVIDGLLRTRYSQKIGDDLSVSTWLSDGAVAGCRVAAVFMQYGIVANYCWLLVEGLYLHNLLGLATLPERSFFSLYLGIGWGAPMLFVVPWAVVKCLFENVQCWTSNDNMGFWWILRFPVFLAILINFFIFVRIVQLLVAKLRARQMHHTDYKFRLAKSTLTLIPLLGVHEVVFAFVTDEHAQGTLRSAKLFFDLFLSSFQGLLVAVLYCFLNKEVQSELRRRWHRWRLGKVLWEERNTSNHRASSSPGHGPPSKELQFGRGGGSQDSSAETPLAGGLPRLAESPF
# T1 sequence (P47871 26-477): as above
# T3 sequence (P30082 27-485): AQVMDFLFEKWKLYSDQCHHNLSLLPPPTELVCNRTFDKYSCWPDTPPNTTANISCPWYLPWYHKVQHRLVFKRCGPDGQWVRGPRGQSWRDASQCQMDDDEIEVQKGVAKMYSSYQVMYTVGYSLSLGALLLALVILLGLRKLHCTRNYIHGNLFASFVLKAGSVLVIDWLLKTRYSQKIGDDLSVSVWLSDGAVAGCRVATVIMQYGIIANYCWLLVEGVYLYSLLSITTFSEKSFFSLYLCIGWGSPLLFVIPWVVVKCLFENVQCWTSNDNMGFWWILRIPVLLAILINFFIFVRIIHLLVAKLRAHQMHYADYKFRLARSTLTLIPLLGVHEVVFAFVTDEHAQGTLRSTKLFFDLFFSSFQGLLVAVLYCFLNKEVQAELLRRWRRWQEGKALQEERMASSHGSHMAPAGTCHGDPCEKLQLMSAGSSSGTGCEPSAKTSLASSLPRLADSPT
smiles,measurement,setting,value
"CC[C@H](C)[C@H](NC(=O)[C@H](Cc1ccccc1)NC(=O)[C@H](CCC(=O)O)NC(=O)[C@@H]1CCCCNC(=O)CC[C@H](NC(=O)[C@H](CC(=O)O)NC(=O)[C@H](CC(C)C)NC(=O)[C@H](CCC(N)=O)NC(=O)[C@H](CCCCN)NC(=O)[C@H](CO)NC(=O)[C@H](Cc2ccc(O)cc2)NC(=O)[C@H](CC(=O)O)NC(=O)[C@H](CO)NC(=O)[C@@H](NC(=O)[C@H](Cc2ccccc2)NC(=O)[C@@H](NC(=O)CNC(=O)[C@H](CCC(N)=O)NC(=O)[C@@H](CO)NC(=O)[C@@H](N)Cc2cscn2)[C@@H](C)O)[C@@H](C)O)C(=O)N[C@@H](CCC(N)=O)C(=O)N[C@@H](CCCNC(=N)N)C(=O)N[C@@H](C)C(=O)N1)C(=O)N[C@@H](CCC(=O)O)C(=O)N[C@@H](Cc1c[nH]c2ccccc12)C(=O)N[C@@H](CC(C)C)C(=O)N[C@@H](CC(C)C)C(=O)N[C@@H](C)C(=O)N[C@H](C(=O)NCC(=O)N1CCC[C@H]1C(=O)N[C@@H](CCC(=O)O)C(=O)N[C@@H](CO)C(=O)NCC(=O)N[C@@H](C)C(=O)N1CCC[C@H]1C(=O)N1CCC[C@H]1C(=O)N1CCC[C@H]1C(=O)N[C@@H](CO)C(=O)N[C@@H](CSCCS(=O)(=O)CCN1CCN(CC(=O)O)CCN(CC(=O)O)CCN(CC(=O)O)CC1)C(N)=O)[C@@H](C)O [[^68Ga]Ga-DO3A-S01-GCG, metal not drawn] (H-[Ala(4-thiazolyl)][dS]QGTFTSDYSKQLDEQRAKEFIEWLLATGPESGAPPPSC(DO3A(CH2CH2SO2CH2CH2))-NH2; lactam 16-20)",binding to GCGR-transfected cells at steady state / plateau (total cell-associated),"[1]; 3–7 nM tracer, RT, after 60–120 min (S01) or 60 min (S02), triplicates, 3 batches",approximately 65 % ID/million cells
same,effect of cooling on internalization,"[1]; 4 °C, 60 and 120 min",suppressed almost completely
same,effect of GLP-1 in excess on tracer binding to liver sections,"[2]; 1 μM GLP-1, n = 3",did not induce inhibition
same,inhibition of tracer binding to liver sections by co-incubation with own precursor peptide,"[2]; 10 μM precursor, n = 3",did not increase the degree of inhibition
same,effect of GLP-1 in excess on tracer binding to liver sections,"[3]; 1 μM GLP-1, n = 1",did not induce inhibition
same,inhibition of tracer binding to liver sections by co-incubation with own precursor peptide,"[3]; 10 μM precursor, n = 1",did not increase the degree of inhibition

# Source: paper PMC6377692 (EJNMMI Research, 2019)
